Here are results for one molecule from patent US20240122938A1, “METHODS AND COMPOSITIONS FOR TREATING UVEAL MELANOMA” (INSERM (INSTITUT NATIONAL DE LA SANTÉ ET DE LA RECHERCHE …, priority 2019, published 2024).

Test [1] has as its system BCL-2 family members in metastatic OMM1 cells. As to the kind of experiment: Protein immunoblot of BCL-2 family members. It is filed as cell-based, human. The protocol:
(§1) Western blotting was performed as previously described 25,26. Briefly, cell lysates (30 μg) were separated using SDS-PAGE, transferred onto a PVDF membrane and subsequently exposed to the appropriate antibodies, anti-BCL2 (ms-123-PO) was from neomarker, anti-caspase 3 (#610323) was from BD, anti-BAX (#8429) was from sigma, anti-PARP (#9542), anti-BCL-XL (#2762), anti-caspase 9 (#9502) and anti-PUMA (#4976) were from Cell Signaling Technology Inc, anti-MCL1 (#sc-819), anti-NOXA (#56169), and anti-HSP90 (#sc-13119) were from Santa Cruz biotechnology. The proteins were visualized using the ECL system (Amersham).

Test [2] relates to NOXA in primary cells. As to the kind of experiment: Protein immunoblot of BCL-2 family members. It is filed as cell-based, human. The note with it: 24 h of treatment. The protocol: as §1
Background: Immunoblotting shows a protein as a band on a membrane.

Test [3] relates to Mel270 xenografts. Description: Subcutaneous tumor xenograft. The note with it: established Mel270 xenografts; 50 mg/kg intraperitoneal. It is filed as in vivo, athymic nude mice. The protocol: (§2) FIG. 2. Effect of ABT-263 on tumor growth in vivo effects. (A) Primary Mel270 and (B) metastatic OMM1 uveal melanoma cells were subcutaneously engrafted into athymic nude mice. Once the tumours reached 100 mm3, mice were treated daily with ABT-263. The arrow indicates the start of the treatment. The growth tumor curves were determined by measuring the tumor volume using the equation V=(L Å˜W2)/2. […] (C-D) Sub-cutaneous tumor weight from control (Ct) and ABT-263-treated mice is shown. Animal experiments were performed in accordance with French law and approved by a local institutional ethical committee. The animals were maintained in a temperature-controlled facility (22° C.) on a 12-h light/dark cycle and provided free access to food (standard laboratory chow diet from UAR, Epinay-S/Orge, France). Human Mel270 uvealmelanoma cells were subcutaneously inoculated into 8-week-old female, immune-deficient, athymic, nude FOXN1nu mice (Harlan Laboratory). When the tumors became palpable (0.1-0.2 cm3), the mice received an intraperitoneal injection of ABT-263 (50 mg/kg), dissolved in 10% DMSO 6 times per week. Control mice were injected with DMSO alone. The growth tumor curves were determined after measuring the tumor volume using the equation V=(L×W2)/2. At the end of the experiment, the mice were euthanized by cervical dislocation.

The subject of test [4] is metastatic OMM1 xenografts. As to the kind of experiment: Subcutaneous tumor xenograft. It is filed as in vivo, athymic nude mice. The protocol: as §2

Each structure is given as a SMILES string.

Regarding `CC1(C)CCC(c2ccc(Cl)cc2)=C(CN2CCN(c3ccc(C(=O)NS(=O)(=O)c4ccc(N[C@H](CCN5CCOCC5)CSc5ccccc5)c(S(=O)(=O)C(F)(F)F)c4)cc3)CC2)C1` [ABT-263, 4-[4-[[2-(4-chlorophenyl)-5,5-dimethyl-1-cyclohexen-1-yl]methyl]-1-piperazinyl]-N-[[4-[[(1R)-3-(4-morpholinyl)-1-[(phenylthio)methyl]propyl]amino]-3-[(trifluoromethyl)sulfonyl]phenyl]sulfonyl]-benzamide], the BCL2 level entry in test [1] (cell line not given) is listed as “no change”. Also, the “expression of BCL-xL, MCL1, PUMA, BAX” value in test [1] (metastatic OMM1 cells only) was “reduced expression”. Also, the “change in BCL-2 family proteins” value in test [2] is “increase in pro-apoptotic NOXA level”. The tumor growth result in test [3] is reported as “partially effective”; in test [4] (metastatic OMM1 xenografts, in some mice total tumor disappearance), “marked tumor regression”. The “excised tumor weight versus control group” value in test [4] (end of experiment) is “weighed significantly less”.
